Literature values, collected in patent publication EP0331593A1, “Process for the preparation of hydroxybenzaldehydes by hydrocarbonylation” (RHONE-POULENC CHIMIE, priority 1988, dated 1989).
Read-outs that look alike come from different tables or passages of the source.

Experiments:
[1] = in water, generally 25°C
[2] = phosphine

| SMILES | pKa * (pka del'acide conjugué de l'amine tertiaire) ([1]; Tableau I) | pKa * (pka de l'acide conjugé de l'amine tertiaire) ([1]; Tableau II) | pKa * (pka del'acide conjugué de l'amine tertiaire) ([1]; Tableau III) | pKa * (pka de l'acide conjugé de l'amine tertiaire) ([1]; Tableau IV) | pKa à 25°C [2] |
| --- | --- | --- | --- | --- | --- |
| Cc1ccnc(C)c1 [Diméthyl-2,4 Pyridine] | 6,99 | 6,99 | 6,99 | 6,99 | – |
| Cc1cccc(C)n1 [Diméthyl-2,6 Pyridine] | 6,73 | 6,73 | – | – | – |
| Cc1ccncc1C [Diméthyl-3,4 Pyridine] | 6,57 | 6,57 | – | – | – |
| Cc1ccncc1 [Gamma Picoline] | 6,02 | – | – | – | – |
| c1cnccn1 [Pyrazine] | 0,65 | – | 0,65 | 0,65 | – |
| c1ccc(P(c2ccccc2)c2ccccc2)cc1 [triphénylphosphine] | – | – | – | – | 2,73 |
| Cc1cccc(P(c2cccc(C)c2)c2cccc(C)c2)c1 [tris(méthyl-3 phényl)phosphine] | – | – | – | – | 3,3 |
